Assay [1] deals with Leishmania donovani. The assay can be described thus: Antileishmanial activity against promastigote form of Leishmania donovani NHOM/IN/80/DD8 assessed as decrease in cell viability after 72 hrs by MTT assay. Particulars: NHOM/IN/80/DD8, 72 h. Type of assay: functional, organism-based. In general terms: Formazan colour is commonly taken as a measure of viable cells.
The subject of assay [2] is Leishmania donovani. The experiment in a line: Potency index, ratio of sodium stibogluconate IC50 to compound IC50 for promastigote form of Leishmania donovani NHOM/IN/80/DD8. It counts as functional.
Assay [3] is described as follows: Antioxidant activity assessed as DPPH radical scavenging activity after 20 to 30 mins. Type of assay: functional. Background: Loss of DPPH colour is used to gauge radical scavenging.

Converted amounts (≈) assume the structure as drawn.

What is called IC50 is the concentration that inhibits the measured activity by half. As for `CCCCc1oc2ccc(/N=C/c3ccc(O)cc3)cc2c1C(=O)c1ccc(OC)cc1`, the IC50 with Leishmania donovani [1] was found to be 144 µg/mL (≈ 337 µM); in assay [3], 22.79 µg/mL (≈ 53.3 µM). For the same compound, in the assay on Leishmania donovani [2], the “Ratio IC50” value worked out at 4.
As for `O=C1O[C@H]([C@@H](O)CO)C(O)=C1O` [ASCORBIC ACID], the IC50 in assay [3] was found to be 3.31 µg/mL (≈ 18.8 µM).
In the case of `CCCCc1oc2ccc(/N=C/c3ccc(C#N)cc3)cc2c1C(=O)c1ccc(OC)cc1`, the IC50 with Leishmania donovani [1] amounted to 101 µg/mL (≈ 231 µM); in assay [3], 27.16 µg/mL (≈ 62.2 µM).
Consider `CCCCc1oc2ccc(/N=C/c3ccc(OCC)c(OC)c3)cc2c1C(=O)c1ccc(OC)cc1`, for which the IC50 stood at 238 µg/mL (≈ 491 µM) in the assay with Leishmania donovani [1] and 14.78 µg/mL (≈ 30.4 µM) in assay [3].
Take `CCCCc1oc2ccc(/N=C/c3ccc(CC)cc3)cc2c1C(=O)c1ccc(OC)cc1`: the IC50 worked out at 59.3 µg/mL (≈ 135 µM) in the assay with Leishmania donovani [1] and 3.69 µg/mL (≈ 8.39 µM) in assay [3].
Turning to `CCCCc1oc2ccc(/N=C/c3ccc(F)cc3)cc2c1C(=O)c1ccc(OC)cc1`, the IC50 in the assay on Leishmania donovani [1] was determined as 77.4 µg/mL (≈ 180 µM); in assay [3] it was 100.3 µg/mL (≈ 234 µM).
The matching figures for `CCCCc1oc2ccc(/N=C/c3cccc([N+](=O)[O-])c3)cc2c1C(=O)c1ccc(OC)cc1`: 103 µg/mL (≈ 226 µM) and 34.16 µg/mL (≈ 74.8 µM).
For the compound `CCCCc1oc2ccc(/N=C/c3ccc(Cl)cc3)cc2c1C(=O)c1ccc(OC)cc1`, the IC50 in the assay on Leishmania donovani [1] worked out at 372 µg/mL (≈ 834 µM); in assay [3], 75.86 µg/mL (≈ 170 µM).
Taken in the same sequence, the figures for `CCCCc1oc2ccc(/N=C/c3ccc(OC)cc3OC)cc2c1C(=O)c1ccc(OC)cc1` were 52 µg/mL (≈ 110 µM) and 20.53 µg/mL (≈ 43.5 µM).
Consider `CCCCc1oc2ccc(/N=C/c3ccc(Cl)cc3Cl)cc2c1C(=O)c1ccc(OC)cc1`, for which the IC50 in the assay on Leishmania donovani [1] was 124 µg/mL (≈ 258 µM); in assay [3] it was 2.44 µg/mL (≈ 5.08 µM).
Consider `N=C(N)c1ccc(OCCCCCOc2ccc(C(=N)N)cc2)cc1` [PENTAMIDINE], for which, in the assay with Leishmania donovani [1], the IC50 was 16.1 µg/mL (≈ 47.4 µM).
In the case of `CCCCc1oc2ccc(/N=C/c3ccc(O)cc3O)cc2c1C(=O)c1ccc(OC)cc1`, the IC50 is 109 µg/mL (≈ 246 µM) with Leishmania donovani [1] and 7.55 µg/mL (≈ 17 µM) in assay [3]. Moreover, the “Ratio IC50” value in the assay on Leishmania donovani [2] amounted to 4.
For the compound `CCCCc1oc2ccc(/N=C/c3ccccc3)cc2c1C(=O)c1ccc(OC)cc1`, the IC50 is 279 µg/mL (≈ 677 µM) in the assay on Leishmania donovani [1] and 34.24 µg/mL (≈ 83.2 µM) in assay [3]. In addition, the “Ratio IC50” value in the assay with Leishmania donovani [2] is reported as 2.
Regarding `CCCCc1oc2ccc(/N=C/c3ccc([N+](=O)[O-])cc3)cc2c1C(=O)c1ccc(OC)cc1`, the IC50 in the assay on Leishmania donovani [1] stood at 56 µg/mL (≈ 123 µM); in assay [3], 53.11 µg/mL (≈ 116 µM).
Turning to `CCCCc1oc2ccc(/N=C/c3ccccc3O)cc2c1C(=O)c1ccc(OC)cc1`, the figures for the half-maximal inhibitory concentration (IC50) (with Leishmania donovani [1]; in assay [3]) were 115 µg/mL (≈ 268 µM) and 99.43 µg/mL (≈ 233 µM), respectively. Further, in the assay on Leishmania donovani [2], the “Ratio IC50” value worked out at 4.
